Patent US20060211739A1, “Use of selective P2X7 receptor antagonists” (priority 2005, published 2006)
Counter-ions that a name gives are not always drawn.

SMILES | melting point [°C]
Cc1noc(C)c1Cn1nnnc1-c1cccc(Cl)c1Cl (as salt: hydrochloride) [Example 38, 5-(2,3-dichlorophenyl)-1-[(3,5-dimethylisoxazol-4-yl)methyl]-1H-tetraazole] | 176 to 178
Cl.Clc1ccc(Cl)c(-c2nnnn2Cc2cccnc2)c1 | 200 to 201
Clc1ccc(-c2nnnn2Cc2ccccc2)s1 (as salt: hydrochloride) [Example 50, 1-benzyl-5-(5-chlorothien-2-yl)-1H-tetraazole] | 176 to 177
CCOC(=O)c1nocc1Cn1nnnc1-c1cccc(Cl)c1Cl (as salt: hydrochloride) [Example 34, ethyl 4-{[5-(2,3-dichlorophenyl)-1H-tetraazol-1-yl]methyl}isoxazole-3-carboxylate] | 161 to 163
Cc1ccnc(C)c1Cn1nnnc1-c1cccc(Cl)c1Cl (as salt: hydrochloride) [Example 30, 3-{[5-(2,3-dichlorophenyl)-1H-tetraazol-1-yl]methyl}-2,4-dimethylpyridine] | 146 to 148
Cc1ncccc1Cn1nnnc1-c1cc(Cl)ccc1Cl [Example 44, 3-{[5-(2,5-dichlorophenyl)-1H-tetraazol-1-yl]methyl}-2-methylpyridine] | 172 to 174
Brc1ccc(-c2nnnn2Cc2ccccc2)s1 (as salt: hydrochloride) [Example 51, 1-benzyl-5-(5-bromothien-2-yl)-1H-tetraazole] | 196 to 197
Cc1nc(C)c(Cn2nnnc2-c2cccc(Cl)c2Cl)s1 (as salt: hydrochloride) [Example 36, 5-(2,3-dichlorophenyl)-1-[(2,4-dimethyl-1,3-thiazol-5-yl)methyl]-1H-tetraazole] | 174 to 175

Further lines, results first:

melting point [°C] | SMILES
166 to 168 | Cn1cncc1Cn1nnnc1-c1cccc(Cl)c1Cl (as salt: hydrochloride) [Example 37, 5-(2,3-dichlorophenyl)-1-[(1-methyl-1H-imidazol-5-yl)methyl]-1H-tetraazole]
154 to 156 | Cc1ccncc1Cn1nnnc1-c1cccc(Cl)c1Cl (as salt: hydrochloride) [Example 29, 3-{[5-(2,3-dichlorophenyl)-1H-tetraazol-1-yl]methyl}-4-methylpyridine]
151 to 153 | Cc1[nH]cnc1Cn1nnnc1-c1cccc(Cl)c1Cl (as salt: hydrochloride) [Example 35, 5-(2,3-dichlorophenyl)-1-[(5-methyl-1H-imidazol-4-yl)methyl]-1H-tetraazole]
153 to 154 | Clc1cccc(-c2nnnn2Cc2cscn2)c1Cl (as salt: hydrochloride) [Example 31, 5-(2,3-dichlorophenyl)-1-(1,3-thiazol-4-ylmethyl)-1H-tetraazole]
156 to 158 | Cc1nc(Cn2nnnc2-c2cccc(Cl)c2Cl)cs1 (as salt: hydrochloride) [Example 32, 5-(2,3-dichlorophenyl)-1-[(2-methyl-1,3-thiazol-4-yl)methyl]-1H-tetraazole]
104 to 105 | Cc1ncccc1Cn1nnnc1-c1cccc(Cl)c1Cl.Cl
